According to patent US20170280720A1, “ARGININE […] INHIBITORS AND USES THEREOF” (EPIZYME, INC., priority 2014, published 2017):

Biological target: T1, Human CARM1 (PRMT4) (Homo sapiens, UniProt Q86X55)
T1 construct: Flag-CARM1-His; made in house; host or cells: HEK 293F cells (BacMam baculovirus, pFastBacMam)
T1 sequence (Q86X55 2-585 isoform Q86X55-1): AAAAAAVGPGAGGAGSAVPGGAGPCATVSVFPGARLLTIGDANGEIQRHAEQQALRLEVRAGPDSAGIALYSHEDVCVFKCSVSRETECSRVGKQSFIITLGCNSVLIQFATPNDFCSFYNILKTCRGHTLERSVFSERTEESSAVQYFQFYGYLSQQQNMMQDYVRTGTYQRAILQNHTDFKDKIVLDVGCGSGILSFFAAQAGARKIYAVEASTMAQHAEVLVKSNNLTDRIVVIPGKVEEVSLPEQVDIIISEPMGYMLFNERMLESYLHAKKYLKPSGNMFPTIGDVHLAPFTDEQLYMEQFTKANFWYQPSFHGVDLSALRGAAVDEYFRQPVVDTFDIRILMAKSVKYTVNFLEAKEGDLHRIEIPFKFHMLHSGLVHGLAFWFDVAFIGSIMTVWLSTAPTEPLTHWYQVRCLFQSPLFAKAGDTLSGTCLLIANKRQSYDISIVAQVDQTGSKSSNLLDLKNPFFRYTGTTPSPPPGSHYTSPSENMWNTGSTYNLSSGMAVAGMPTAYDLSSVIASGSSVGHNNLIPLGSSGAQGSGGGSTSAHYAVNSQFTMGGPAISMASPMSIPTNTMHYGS
Test: CARM1 biochemical assay (3H-SAM Flashplate, peptide substrate)
Details: read-out: CARM1_ IC50
Procedure, shortened: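 FLAG/His-tagged human CARM1 (isoform 1, Δ539-561, baculovirus-expressed), 0.25 nM, preincubated 30 min at room temperature with compound (2% DMSO) in 20 mM Bicine pH 7.6, then reacted with 30 nM 3H-SAM and 250 nM biotinylated H3 16-30 peptide (R26 monomethyl). Stopped with 300 uM cold SAM; labelled peptide captured on streptavidin Flashplate; % inhibition versus DMSO and 1 mM SAH controls fitted to a 4- or 3-parameter curve.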

Point of comparison: `CNCCN(C)Cc1cccc(-c2nc(NC3CC3)c3cnn(C4CC4)c3n2)c1` [Compound 114], IC50 0.0179 µM. Against it:
- CC(C)n1ncc2c(NC3CCOCC3)cc(-c3cccc(CN(C)CCN)c3)nc21 [Compound 101] — 3.5-fold lower, 0.00511 µM
- CNCCN(C)Cc1cccc(-c2cc(OC3CCOC3)c3cnn(C(C)C)c3n2)c1 (stereo not drawn) [Compound 102] — within 1.5-fold, 0.0224 µM
- CNCCN(C)Cc1cccc(-c2cc(N(C)C)c3cnn(C(C)C)c3n2)c1 [Compound 103] — 3.2-fold higher, 0.0577 µM
- NCCNCc1ccc(-c2ccc3ncn(Cc4ccc(C(=O)N5CCCC5)cc4)c3c2)cc1 [Compound 104] — 230-fold higher, 4.12 µM
- CNCCN(C)Cc1cccc(-c2cc(C(=O)NCC3CCOCC3)c3cnn(C(C)C)c3n2)c1 [Compound 105] — within 1.5-fold, 0.0181 µM
- Cc1cccc(-n2cnc3ccc(-c4ccc(CNCCN)cc4)cc32)c1 [Compound 106] — 830-fold higher, 14.9 µM
- CC(C)n1ncc2c(NS(=O)(=O)N(C)C)cc(-c3cccc(CN(C)CCN)c3)nc21 [Compound 107] — within 1.5-fold, 0.0258 µM
- CC(C)n1ncc2c(C(=O)NCC3CCOCC3)cc(-c3cccc(CN(C)CCN)c3)nc21 [Compound 108] — 1.7-fold lower, 0.0104 µM
- CNCCN(C)Cc1cccc(-c2nc(N(C)C3CCOCC3)c3cnn(C4CC4)c3n2)c1 [Compound 109, N1-(3-(1-cyclopropyl-4-(methyl(tetrahydro-2H-pyran-4-yl)amino)-1H-pyrazolo[3,4-d]pyrimidin-6-yl)benzyl)-N1,N2-dimethylethane-1,2-diamine] — 3.6-fold lower, 0.00502 µM
- COc1cccc(-n2cnc3ccc(-c4ccc(CNCCN)cc4)cc32)c1 [Compound 110] — 590-fold higher, 10.6 µM
- CCS(=O)(=O)Nc1cc(-c2cccc(CN(C)CCN)c2)nc2c1cnn2C(C)C [Compound 111] — 7.3-fold higher, 0.131 µM
- CNCCN(C)Cc1cccc(-c2cc(C(=O)NCCCCCC(=O)NCC3CCOCC3)c3cnn(C(C)C)c3n2)c1 [Compound 112] — within 1.5-fold, 0.0239 µM
- COc1ccccc1-c1nc2ccc(-c3ccc(CNCCN)cc3)cc2[nH]1 [Compound 115] — 380-fold higher, 6.87 µM
- CC(C)n1ncc2c(NC(=O)N(C)C)cc(-c3cccc(CN(C)CCN)c3)nc21 [Compound 116] — within 1.5-fold, 0.0234 µM
- CNCCN(C)Cc1cccc(-c2cc(C(=O)NCCCCCC(=O)NCc3ccn(C)n3)c3cnn(C(C)C)c3n2)c1 [Compound 117] — 1.9-fold higher, 0.0334 µM
- CNCCN(C)Cc1cccc(-c2cc(C(=O)NCCCCC(=O)NCC3CCOCC3)c3cnn(C(C)C)c3n2)c1 [Compound 118] — within 1.5-fold, 0.018 µM
- CN(CCN)Cc1cccc(-c2nc(N(C)C3CCOCC3)c3cnn(C4CC4)c3n2)c1 [Compound 119] — 3.8-fold lower, 0.00477 µM
- CNCCN(C)Cc1cccc(-c2cc(C(=O)NCc3cc(C)nn3C)c3cnn(C(C)C)c3n2)c1 [Compound 120] — 2-fold higher, 0.0356 µM
- CNCCN(C)Cc1cccc(-c2cc(NC)c3cnn(C(C)C)c3n2)c1 [Compound 121] — 3.9-fold higher, 0.0702 µM
- CNCCN(C)Cc1cccc(-c2cc(C(=O)NCCCCC(=O)NCc3ccn(C)n3)c3cnn(C(C)C)c3n2)c1 [Compound 122] — within 1.5-fold, 0.0135 µM
- CNCCN(C)Cc1cccc(-c2cc(NC(=O)N(C)C)c3cnn(C(C)C)c3n2)c1 [Compound 123] — 1.7-fold higher, 0.0296 µM
- CNCCN(C)Cc1cccc(-c2cc(OC)c3cnn(C(C)C)c3n2)c1 [Compound 124] — 4.2-fold higher, 0.0755 µM
- CC(C)n1ncc2c(C(=O)N[C@@H](C)c3ccccc3)cc(-c3cccc(CNCCN)c3)cc21 [Compound 125] — 4.2-fold higher, 0.0758 µM
